Reference: US20250144083A1, “METHODS AND COMPOSITIONS FOR TREATING CANCER IN TAXANE-RESISTANT PATIENTS” (MODRA PHARMACEUTICALS B.V., priority 2022, published 2025)
Where “and” joins values, the source holds several entries; their conditions need not be identical. Identical values can stand only once. Entries after “also recorded” stand apart in the source; their conditions may differ. Like-named read-outs stand apart in the source and are kept apart here. Blank lines part the entries; values can stand above or below the molecule they belong to.

What was measured:
Type in all cases: cell-based
[1] = test system: DU-145 DOC10 prostate cancer cells; test: 3D clonogenic assay, docetaxel-resistant DU-145 DOC10; conditions: for Relative Resistance to cabazitaxel / Relative Resistance to docetaxel: compared to parental DU-145 cells without ritonavir; for IC50: Homo sapiens; for Relative Resist to docetaxel: compared to parental DU-145 cells without elacridar
Experimental: (§1) For the single agent efficacy experiment, a master stock solution of cabazitaxel was prepared by dissolving compound powder in DMSO at a concentration of 10 mM. From this a working stock solution of 0.1 mM (330-fold the highest test concentration) was prepared. Small aliquots of this solution were stored at −20° C. On each day of an experiment, a frozen aliquot of the working stock solution was thawed and stored at room temperature prior to and during treatment. First, serial half-log dilutions of the working stock solution were prepared in DMSO. These dilutions were then diluted 1:22 into cell culture medium in an intermediate dilution plate. Finally, 10 μl taken from the intermediate dilution plate were transferred to 140 μl/well of the final assay plate. Thus, the DMSO working stock was diluted 1:330, and the DMSO concentration in the assay was 0.3% v/v.
(§2) For combination experiments, working stock solutions of docetaxel, ritonavir, elacridar, and cabazitaxel were prepared in DMSO at concentrations of 660-fold the highest test concentration used. Small aliquots of this stock solution were stored at −20° C. On each day of an experiment, a frozen aliquot of the working stock solutions was thawed and stored at room temperature prior to and during treatment. First, 1:2 dilutions of 660-fold concentrated working stocks were done in DMSO (in case of monotherapy controls), or equal amounts of the compound working stocks were mixed (in case of drug combinations). Then, different dilutions of these 330-fold concentrated solutions were done in DMSO to give a 8*2 matrix combination layout. The DMSO dilutions were further diluted 1:22 into cell culture medium (IMDM, supplemented with 20% (v/v) fetal calf serum, 50 μg/ml gentamicin) in an intermediate dilution plate. Finally, 10 μl taken from the intermediate dilution plate were transferred to 140 μl of cells and medium per well of the final assay plate. Thus, the DMSO dilutions used for the mono- and the combination-treatment were diluted 1:330, and the DMSO concentration in the assay was 0.3% v/v.
(§3) DU-145 DOC10 was generated from DU-145 and 22Rv1 DOC8 was generated from 22Rv1. 22Rv1 was obtained from American Type Culture Collection (ATCC, Rockville, MD, USA), whereas DU-145 was obtained from National Cancer Institute (NCI, Bethesda, MD, USA).
(§4) Tumour cell lines were grown at 37° C. in a humidified atmosphere with 5% CO2 in RPMI 1640 medium (Biochrom) supplemented with 10% (v/v) fetal calf serum and 50 μg/ml gentamicin. Docetaxel resistant sublines were cultured in the presence of 8 nM (22Rv1) or 10 nM docetaxel (DU-145). The cells were routinely passaged once or twice weekly and maintained in culture for up to 20 passages. For the assay, cells were harvested using TrypLE and the percentage of viable cells was determined by the CASY TT cell counter (OMNI Life Science).
(§5) The clonogenic assay was carried out in a 96 well plate format using ultra low attachment plates. For each test, cells were prepared and assay plates were prepared as follows: each test well contained a layer of semi-solid medium with tumour cells (50 μl), and a second layer of medium supernatant with or without test compound (100 μl). The cell layer consisted of 2·10^3 to 3·10^3 tumour cells per well, which were seeded in 50 μl/well cell culture medium (IMDM, supplemented with 20% (v/v) fetal calf serum, 50 μg/ml gentamicin, and 0.4% (w/v) agar). After 24 h, the soft-agar layer was covered with 90 μl of the same culture medium without agar, and 10 μl of control medium or test compound after serial dilution in DMSO and transfer in cell culture medium were added, and left on the cells for the duration of the experiment (continuous exposure, 100 μl drug overlay). Every plate included six untreated control wells and drug-treated groups. Duplicate values were obtained by testing single values per condition on one plate. […]

[2] = test system: DU-145 prostate cancer cells; test: 3D clonogenic assay, parental DU-145; conditions: for IC50: Homo sapiens
Experimental: as §1, §2, §3, §4, §5

[3] = test system: 22Rv1 prostate cancer cells; test: 3D clonogenic assay, parental 22Rv1; conditions: for IC50: Homo sapiens
Experimental: as §1
as §2, with “Finally, 10 μl taken from the intermediate dilution plate were transferred to 140 μl of cells and medium per well of the final assay plate. Thus, the DMSO dilutions used for the mono- and the combination-treatment were diluted 1:330, and the DMSO concentration in the assay was 0.3% v/v.” left out
Tumour cell lines were grown at 37° C. in a humidified atmosphere with 5% CO2 in RPMI 1640 medium (Biochrom) supplemented with 10% (v/v) fetal calf serum and 50 μg/ml gentamicin. […] For the assay, cells were harvested using TrypLE and the percentage of viable cells was determined by the CASY TT cell counter (OMNI Life Science). […]

[4] = test system: 22Rv1 DOC8 prostate cancer cells; test: 3D clonogenic assay, docetaxel-resistant 22Rv1 DOC8; conditions: for IC50: Homo sapiens; for Relative Resist to docetaxel: compared to parental 22Rv1 cells without elacridar
Experimental: as §1, §2, §3, §4, §5

[5] = test system: DU-145 DOC10 prostate cancer cells; test: 2D culture docetaxel resistance, DU-145 DOC10 vs DU-145; conditions: 2D setup, DU-145 cells exposed to docetaxel for 3 months
[6] = test system: 22Rv1 DOC8 prostate cancer cells; test: 2D culture docetaxel resistance, 22Rv1 DOC8 vs 22Rv1; conditions: 2D setup, 22Rv1 cells exposed to docetaxel for 3 months

IC50 ([1]; DU-145, DU145 DOC10, 10 μM ritonavir, read-out: IC50 value of cabazitaxel): 0.6 nM | IC50 ([1]; DU-145, DU145 DOC10, without ritonavir, read-out: IC50 value of cabazitaxel): 1.5 nM | shift of the IC50 value of cabazitaxel, monotherapy ([1]; printed: DU-145 DOC8 vs. DU-145): 2.7 fold | IC50 ([4]; 22Rv1, 22Rv1 DOC8, 10 μM ritonavir, read-out: IC50 value of cabazitaxel): 5.2 nM | IC50 ([4]; 22Rv1, 22Rv1 DOC8, 32 μM ritonavir, read-out: IC50 value of cabazitaxel): 0.7 nM | IC50 ([4]; 22Rv1, 22Rv1 DOC8, without ritonavir, read-out: IC50 value of cabazitaxel): 9.5 nM | fold higher relative IC50 value of cabazitaxel, monotherapy ([4]; printed: for 22Rv1 compared to 22Rv1): 14.5 fold
SMILES: CO[C@H]1C(=O)[C@]2(C)[C@@H](OC)C[C@H]3OC[C@@]3(OC(C)=O)[C@H]2[C@H](OC(=O)c2ccccc2)[C@]2(O)C[C@H](OC(=O)[C@H](O)[C@@H](NC(=O)OC(C)(C)C)c3ccccc3)C(C)=C1C2(C)C [cabazitaxel]
Relative Resistance to cabazitaxel ([1]; DU145 DOC10, 10 μM ritonavir): 1 | Relative Resistance to cabazitaxel ([1]; DU145 DOC10 without ritonavir): 2.5 | tumour cell growth inhibition, monotherapy ([1]; DU-145 DOC10): inhibited tumour cell growth in a concentration dependent manner | tumour cell growth inhibition, monotherapy ([2]; DU-145): inhibited tumour cell growth in a concentration dependent manner | IC50 ([2]; DU-145, DU145, 10 μM ritonavir, read-out: IC50 value of cabazitaxel): 0.3 nM | IC50 ([2]; DU-145, DU145, without ritonavir, read-out: IC50 value of cabazitaxel): 0.6 nM | tumour cell growth inhibition, monotherapy ([3]; 22Rv1): inhibited tumour cell growth in a concentration dependent manner | IC50 ([3]; 22Rv1, without ritonavir, read-out: IC50 value of cabazitaxel): 0.7 nM | tumour cell growth inhibition, monotherapy ([4]; 22Rv1 DOC8): inhibited tumour cell growth in a concentration dependent manner | Relative Resistance to cabazitaxel ([4]; 22Rv1 DOC8 without ritonavir, compared to parental 22Rv1 cells without ritonavir): 14

fold lower IC50 value (increase in sensitivity to docetaxel) ([1]; DU-145 DOC10, 10 μM ritonavir): 3.4 fold | fold lower IC50 value (increase in sensitivity) ([1]; DU-145 DOC10, 10 μM ritonavir, cabazitaxel experiment (FIG. 10)): 2.5 fold | IC50 ([1]; DU-145, DU-145 DOC10, 0.3 μM elacridar, read-out: IC50 value of docetaxel): 1.9 nM | IC50 ([1]; DU-145, DU-145 DOC10, 1 μM elacridar, read-out: IC50 value of docetaxel): 1.6 nM | IC50 ([1]; DU-145, DU-145 DOC10, 1 μM ritonavir, read-out: IC50 value of docetaxel): 8.8 nM | IC50 ([1]; DU-145, DU-145 DOC10, 10 μM ritonavir, read-out: IC50 value of docetaxel): 2.8 nM | IC50 ([1]; DU-145, DU-145 DOC10, without elacridar (elacridar experiment), read-out: IC50 value of docetaxel): 11.7 nM | IC50 ([1]; DU-145, DU-145 DOC10, without ritonavir, read-out: IC50 value of docetaxel): 9.5 nM | fold decrease of relative IC50 value of docetaxel ([4]; 31.6 μM ritonavir, cell line not given): 84 fold | fold lower IC50 value (increase in sensitivity) ([4]; 22Rv1 DOC8, 32 μM ritonavir, cabazitaxel experiment (FIG. 12)): 14 fold | fold lower IC50 value (increase in sensitivity to docetaxel) ([4]; 22Rv1 DOC8, 0.3 and 1 μM elacridar): 100 fold | IC50 ([4]; 22Rv1, 31.6 μM ritonavir, cell line not given, read-out: relative IC50 value of docetaxel): 2.6 nM | IC50 ([4]; 22Rv1, 22Rv1 DOC8, 0.3 μM elacridar, read-out: IC50 value of docetaxel): 1.4 nM | IC50 ([4]; 22Rv1, 22Rv1 DOC8, 1 μM elacridar, read-out: IC50 value of docetaxel): 1.3 nM | IC50 ([4]; 22Rv1, 22Rv1 DOC8, 32 μM ritonavir, read-out: Docetaxel IC50 value): 3 nM | IC50 ([4]; 22Rv1, 22Rv1 DOC8, without elacridar (elacridar experiment), read-out: IC50 value of docetaxel): 134 nM | IC50 ([4]; 22Rv1, 22Rv1 DOC8, without ritonavir, read-out: Docetaxel IC50 value): 202 nM | IC50 ([4]; 22Rv1, without ritonavir, cell line not given, read-out: relative IC50 value of docetaxel): 219 nM
SMILES: CC(=O)O[C@@]12CO[C@@H]1C[C@H](O)[C@@]1(C)C(=O)[C@H](O)C3=C(C)[C@@H](OC(=O)[C@H](O)[C@@H](NC(=O)OC(C)(C)C)c4ccccc4)C[C@@](O)([C@@H](OC(=O)c4ccccc4)[C@H]21)C3(C)C [docetaxel]
resistance to docetaxel: fold increase in IC50 value compared to parental, untreated cells [5]: ~20 fold and 21 fold and 22 fold | Relative Resist to docetaxel ([1]; DU-145 DOC10, 0.3 μM elacridar): 1.7 | Relative Resist to docetaxel ([1]; DU-145 DOC10, 1 μM elacridar): 1.5 | Relative Resistance to docetaxel ([1]; DU-145 DOC10, 1 μM ritonavir): 3.0 | Relative Resistance to docetaxel ([1]; DU-145 DOC10, 10 μM ritonavir): 1.0 | Relative Resist to docetaxel ([1]; DU-145 DOC10 without elacridar): 11 | Relative Resistance to docetaxel ([1]; DU-145 DOC10 without ritonavir, 3D setup): 3.3 | IC50 ([2]; DU-145, DU-145, 0.3 μM elacridar, read-out: IC50 value of docetaxel): 1.1 nM | IC50 ([2]; DU-145, DU-145, 1 μM elacridar, read-out: IC50 value of docetaxel): 1.1 nM | IC50 ([2]; DU-145, DU-145, 1 μM ritonavir, read-out: IC50 value of docetaxel): 1.8 nM | IC50 ([2]; DU-145, DU-145, 10 μM ritonavir, read-out: IC50 value of docetaxel): 1.7 nM | IC50 ([2]; DU-145, DU-145, without elacridar (elacridar experiment), read-out: IC50 value of docetaxel): 1.1 nM | IC50 ([2]; DU-145, DU-145, without ritonavir, read-out: IC50 value of docetaxel): 2.9 nM | IC50 ([3]; 22Rv1, without elacridar, from previously performed experiment, read-out: IC50 value of docetaxel): 1.3 nM | resistance to docetaxel, fold ([4]; 3D setup (clonogenic assay), 22Rv1 DOC8 vs parental): 42 fold | Relative Resist to docetaxel ([4]; 22Rv1 DOC8, 0.3 μM elacridar): 1.1 | Relative Resist to docetaxel ([4]; 22Rv1 DOC8, 1 μM elacridar): 1 | Relative Resist to docetaxel ([4]; 22Rv1 DOC8 without elacridar): 103 | resistance to docetaxel: fold increase in IC50 value compared to parental, untreated cells [6]: > 100 fold and 105 fold and 134 fold

SMILES: COc1cc2c(cc1OC)CN(CCc1ccc(NC(=O)c3cccc4c(=O)c5cccc(OC)c5[nH]c34)cc1)CC2 [elacridar]
reversal of docetaxel resistance ([1]; DU-145 DOC10, by elacridar): reverses docetaxel resistance | reversal of docetaxel resistance ([4]; 22Rv1 DOC8, by elacridar): reverses docetaxel resistance

SMILES: CC(C)c1nc(CN(C)C(=O)N[C@H](C(=O)N[C@@H](Cc2ccccc2)C[C@H](O)[C@H](Cc2ccccc2)NC(=O)OCc2cncs2)C(C)C)cs1 [ritonavir]
reversal of cabazitaxel resistance ([1]; DU145 DOC10, by ritonavir): reverses cabazitaxel resistance | ritonavir concentration that inhibits growth ([1]; DU145 DOC10, ritonavir alone): ≥ 10 µM | reversal of docetaxel resistance ([1]; DU-145 DOC10, by ritonavir): reverses docetaxel resistance | ritonavir concentration that inhibits growth ([2]; DU145, ritonavir alone): ≥ 10 µM | tumour colony formation ([4]; 100 μM ritonavir, cell line not given): inhibited tumour colony formation completely | reversal of cabazitaxel resistance ([4]; 22Rv1 DOC8, by ritonavir): completely reverted; also recorded: reverses cabazitaxel resistance | reversal of docetaxel resistance ([4]; 22Rv1 DOC8, by ritonavir): reverses docetaxel resistance
